Values of other authors as cited in patent publication US20070160667A1, “Controlled release formulation of divalproex sodium” (priority 2006, published 2007).
Like-named read-outs stand apart in the source and are kept apart here.

elimination half-life (in adults): six and seventeen
elimination half-life (in children): four and fourteen
Compound: CCCC(CCC)C(=O)O [valproic acid, 2-Propylpentanoic acid]
